According to patent publication US7163953B2, “Benzylether derivatives” (Hoffmann-La Roche Inc., priority 2004, dated 2007):

Biological target: T1, HER-2 (Homo sapiens, UniProt P04626)
T1 construct: endogenous in cells; host or cells: Calu-3 (human non-small-cell lung cancer, ATCC HTB-55)
Assay: Inhibition of HER-2 phosphorylation in Calu-3 tumor cell line
Format: cell-based
Details: compound concentration 1 μM; Calu-3 cells, 16 h incubation; pY 1248 in HER-2; relative to DMSO control; read-out: Percent inhibition of HER-2-phosphorylation
Protocol: Inhibition of HER-2 Phosphorylation in Calu-3 Tumor Cell Line
2×10^5 Calu-3 cells (Non-Small-Cell Lung Cancer cells, ATTC HTB-55) per well were plated in a 12-well plate. After 4 days cells were starved for 16 h in Dulbecco's Modified Eagle Medium (DMEM)/0.5% Fetal Calf Serum (FCS)/1% Glutamine. During this 16 h period cells were incubated with a solution of the test compound in dimethylsulfoxide (DMSO), so that the final concentration of the compound is 1 μM and the final volume of DMSO is 0.5%. […] Cell lysates were analyzed on a Sodium Dodecyl Sulfate Polyacrylamide Gel Electrophoresis (SDS PAGE) and after transfer to a nitrocellulose membrane detected with an antibody specifically recognizing the pY 1248 in HER-2 (phosphorylated tyrosine residue 1248 of human […]). After incubation with an anti rabbit antibody coupled to POD (peroxidase available from Biorad, Munich, Germany) signals were detected by chemiluminescence (ECL, Amersham). Inhibition of HER-2 phosphorylation is calculated as a percentage of the control, which is treated with DMSO only. The percentage of the inhibition is calculated according to the following formula: Inhibition in %=100−(Phosphorylated-HER2-Signal of Test Sample* 100/Phosphorylated-HER2-Signal DMSO-control).

T1 sequence (P04626 23-1255): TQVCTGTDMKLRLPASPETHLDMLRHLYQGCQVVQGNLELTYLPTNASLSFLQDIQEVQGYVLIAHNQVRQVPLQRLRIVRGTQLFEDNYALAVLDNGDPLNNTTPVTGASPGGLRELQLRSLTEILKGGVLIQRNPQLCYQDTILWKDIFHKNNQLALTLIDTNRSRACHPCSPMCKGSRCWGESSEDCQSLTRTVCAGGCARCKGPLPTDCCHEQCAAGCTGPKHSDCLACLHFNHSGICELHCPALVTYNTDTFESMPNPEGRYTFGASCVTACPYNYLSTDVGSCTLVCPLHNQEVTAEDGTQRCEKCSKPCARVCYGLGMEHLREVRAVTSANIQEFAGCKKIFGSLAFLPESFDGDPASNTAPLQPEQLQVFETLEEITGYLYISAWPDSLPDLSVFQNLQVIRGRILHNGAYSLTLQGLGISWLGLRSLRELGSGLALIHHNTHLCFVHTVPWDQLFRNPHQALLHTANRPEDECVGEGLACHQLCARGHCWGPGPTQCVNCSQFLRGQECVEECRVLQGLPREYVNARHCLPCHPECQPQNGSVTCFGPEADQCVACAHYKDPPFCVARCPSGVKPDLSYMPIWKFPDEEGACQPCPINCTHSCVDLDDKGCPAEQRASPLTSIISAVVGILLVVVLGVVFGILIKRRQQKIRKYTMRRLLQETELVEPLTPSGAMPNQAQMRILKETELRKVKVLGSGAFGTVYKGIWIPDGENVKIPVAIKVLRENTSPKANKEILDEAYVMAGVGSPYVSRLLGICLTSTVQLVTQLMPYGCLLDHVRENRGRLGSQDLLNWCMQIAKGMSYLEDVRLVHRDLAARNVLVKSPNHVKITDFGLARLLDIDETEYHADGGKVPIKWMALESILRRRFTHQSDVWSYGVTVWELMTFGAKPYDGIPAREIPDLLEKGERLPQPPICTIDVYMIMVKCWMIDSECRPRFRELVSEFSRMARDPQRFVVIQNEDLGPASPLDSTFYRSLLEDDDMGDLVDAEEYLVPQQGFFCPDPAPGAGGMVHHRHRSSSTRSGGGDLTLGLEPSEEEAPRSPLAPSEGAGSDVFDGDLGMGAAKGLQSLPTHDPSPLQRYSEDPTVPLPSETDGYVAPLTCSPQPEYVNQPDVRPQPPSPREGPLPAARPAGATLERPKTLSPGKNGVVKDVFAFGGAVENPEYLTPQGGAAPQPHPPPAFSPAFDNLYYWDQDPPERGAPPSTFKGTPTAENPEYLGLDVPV

inhibition at 1 µM	Structure (SMILES)
65 to 80%	Fc1cc(Cl)ccc1/C=C/c1nc(COc2ccc(COCCn3ccnn3)cc2)co1 [Example 1, 1-[2-(4-{2-[2-(E)-(4-Chloro-2-fluoro-phenyl)-vinyl]-oxazol-4-ylmethoxy}-benzyloxy)-ethyl]-1H-[1,2,3]triazole]
> 80%	Clc1ccc(/C=C/c2nc(COc3ccc(COCCn4ccnn4)cc3)co2)cc1 [Example 2, 1-[2-(4-{2-[2-(E)-(4-Chloro-phenyl)-vinyl]-oxazol-4-ylmethoxy}-benzyloxy)-ethyl]-1H-[1,2,3]triazole]
